According to patent US20230174649A1, “PHARMACEUTICAL COMPOSITIONS CONTAINING ANTI-CD47 ANTIBODIES” (I-MAB BIOPHARMA US LIMITED, priority 2020, published 2023):

System: HL-60 cells
Assay: Anti-tumor efficacy in subcutaneous HL-60 xenograft model
Format: in vivo, female NOG mice
Details: for antitumor activity compared with the control group: day 12; for Tumor volume / Tumor Size (mm^3) at day 12, Mean ± SEM: listed as AZA
Experimental: HL-60 cells (a human promyelocytic leukemia cell line, ATCC® cat #CCL-240) were maintained in suspension culture in complete cell growth medium at 37° C. in an atmosphere with 5% CO2. The cells were split twice a week to maintain an exponential growth. After culturing, cells were harvested and counted for tumor inoculation.
To establish the xenograft model, HL-60 cells (10×10^6) were suspended in 0.2 mL of PBS with the same volume of Matrigel and subcutaneously injected into the right flank of each mouse. When tumor volume reaches a mean value of approximately 72 mm^3, i.e., on day 6 after inoculation, mice were divided into several groups and treated with PBS (control group), anti-CD47 antibody (i.e., T4J), AZA, or a combination of T4J and AZA, respectively.
At the time of routine monitoring, the animals were daily checked for any effects of tumor growth and treatments on normal behavior such as mobility, food and water consumption (by looking only), body weight gain/loss (body weights were measured twice a week), eye/hair matting and any other abnormal effects. Death and observed clinical signs were recorded.
Tumor size was measured twice a week in two dimensions using a caliper, and the volume was calculated using the formula: Volume (V)=(L×W×W)/2, where L is tumor length (the longest tumor dimension) and W is tumor width (the longest tumor dimension perpendicular to L). The tumor volume was then used for calculating T/C values. The T/C value (in percentage) is an indicator of antitumor effectiveness, in which T and C are the mean volumes of the treatment group and the control groups, respectively.
The percentage of tumor growth inhibition (TGI) was calculated for each group as follows: 100%×(1−[(Vtreated(^final day)−Vtreated(^initial day))/Vcontrol(^final day)−Vcontrol(^initial day)))], where V is the tumor volume.
Tumor body weight was measured at the end of the study. T/C weight value (in percentage) was calculated using the formula: T/C weight %=T weight/C weight×100% where T weight and C weight were the mean tumor body weight of the treatment group and the control group (vehicle group), respectively.
Q=TGI(A+B))/(TGI(A)+TGI(B)−TGI(A)×TGI(B))
According to Jin's formula, Q<0.85 indicates antagonistic effect, 0.85≤Q<1.15 indicates additive effect, and Q≥1.15 indicates synergistic effect.
T-test was performed to compare tumor body weight among groups. One-way ANOVA was performed to compare tumor volume among groups, and when a significant F-statistics (a ratio of treatment variance to the error variance) was obtained, comparisons between groups were carried out with Games-Howell test. All data were analyzed using IBM SPSS software. A P value of less than 0.05 (p<0.05) was considered statistically significant.

Nc1ncn([C@@H]2O[C@H](CO)[C@@H](O)[C@H]2O)c(=O)n1 [Azacitidine]
antitumor activity compared with the control group (1 mg/kg): no obvious antitumor activity | antitumor activity compared with the control group (2 mg/kg): certain anti-tumor activity | Tumor volume (mm^3), Mean ± SEM (day 0 (first dosing), 1 mg/kg): 70 ± 7 mm^3 | Tumor volume (mm^3), Mean ± SEM (day 0 (first dosing), 2 mg/kg): 70 ± 7 mm^3 | Tumor volume (mm^3), Mean ± SEM (day 3, 1 mg/kg): 189 ± 11 mm^3 | Tumor volume (mm^3), Mean ± SEM (day 3, 2 mg/kg): 161 ± 20 mm^3 | Tumor volume (mm^3), Mean ± SEM (day 7, 1 mg/kg): 589 ± 41 mm^3 | Tumor volume (mm^3), Mean ± SEM (day 7, 2 mg/kg): 498 ± 82 mm^3 | Tumor volume (mm^3), Mean ± SEM (day 10, 1 mg/kg): 1142 ± 86 mm^3 | Tumor volume (mm^3), Mean ± SEM (day 10, 2 mg/kg): 773 ± 145 mm^3 | T/C (%) (day 12, 1 mg/kg): 70.21% | TGI (%) (day 12, 1 mg/kg): 30.52% | Tumor volume / Tumor Size (mm^3) at day 12, Mean ± SEM (day 12, 1 mg/kg): 2081±177 mm^3 | T/C (%) (day 12, 2 mg/kg): 48.98% | TGI (%) (day 12, 2 mg/kg): 52.27% | Tumor volume / Tumor Size (mm^3) at day 12, Mean ± SEM (day 12, 2 mg/kg): 1452±253 mm^3
